Results reported in paper PMC9021288 (Nature Communications, 2022).
pIC50: −log10 of the molar value. Where “and” joins values, the source holds several entries; their conditions need not be identical. Equal entries are not always repeated. Where two headings read alike, the source gives them in different places.

How the values were obtained:
[1] = system: HepG2 cells; test: HepG2 viability (resazurin); conditions: for HepG2 viability assay, normalised to controls / HepG2 viability assay, raw signal: replicate 1, replicate 2
Method: Safety studies were performed by commercial services using their standard protocols. […] Genotoxicity was investigated using the Ames test (Bacterial Reverse Mutation Assay) (Covance Laboratories Ltd, North Yorkshire, England). In vitro mammalian cell micronucleus screening assay was studied in human peripheral blood lymphocytes (BioReliance Corporation, Rockville, USA). Cardiotoxicity was determined against the hERG channel in an automated patch clamp assay using the Qpatch or against the hNaV 1.5, hKV 1.5 and hCaV 1.2 using a manual patch-clamp technique (Metrion Biosciences, Cambridge, UK). Cytotoxicity in human and rat primary hepatocytes was assessed using the CellTiter-Blue assay performed by commercial services (KaLy-Cell). The viability of HepG2 cells was monitored through the addition of 1 mM resazurin. Following 6 h incubation, the relative amount of reduced resazurin was detected in a fluorimeter and compared to the assay controls (vehicle: 0.1% DMSO and positive control: 10 µM puromycin).

[2] = Blood to plasma ratio, human
[3] = system: P. falciparum Dd2-B2; test: 72-h flow cytometry IC50 assay, Dd2-B2 and resistant Dd2-B2; assay type: cell-based, Plasmodium falciparum
Method: Replication assays were performed using a SYBR Green method as described previously. Briefly, asynchronous parasites were diluted to 0.83% parasitemia, 3% hematocrit in 30 µl medium, and added to 30 µl of diluted compounds in medium (0.1% DMSO final concentration) in black 384-wells plates. After a 72-h incubation, 30 µl of SYBR Green diluted in lysis buffer was added according to the manufacturer’s protocol (Life Technologies). Fluorescence intensity was measured on a BioTek Synergy 2 Plate Reader after 1-h incubation and was normalized to a DMSO control (100% growth) and DHA- or epoxomicin-treatment (no growth). […] Parasite survival was assessed by flow cytometry on an Accuri C6 (BD Biosciences) with BD C6 Plus software using SYBR Green and MitoTracker Deep Red FM (Life Technologies) as nuclear stain and vital dye, respectively, and data were analyzed using FlowJo (10.5.0). […] Luminescence was measured after 72 h using the Renilla-Glo(R) Luciferase Assay System (Promega E2750) and the GlomAX® Discover Multimode Microplate Reader (Promega). The luminescence values were normalized to DMSO vehicle (100% growth) and 200 nM chloroquine-treated (no growth) samples as controls.

[4] = system: P. falciparum NF54-HGL gametocytes; design: method as in earlier work; conditions: ref 15 (Schalkwijk et al.); read-out: Gametocyte IC50; cited from earlier work

Structure (SMILES): C[C@@H](CNC(=O)[C@H](O)C(C)(C)CO)NC(=O)c1cc(F)c(F)cc1F [MMV693183]
- HepG2 viability assay, normalised to controls ([1]; log concentration (M) -5): 96% and 104%
- HepG2 viability assay, raw signal ([1]; log concentration (M) -5): 10734 and 11536
- HepG2 viability assay, normalised to controls ([1]; log concentration (M) -5.5): 103% and 105%
- HepG2 viability assay, raw signal ([1]; log concentration (M) -5.5): 11483 and 11722
- HepG2 viability assay, normalised to controls ([1]; log concentration (M) -6): 105% and 100%
- HepG2 viability assay, raw signal ([1]; log concentration (M) -6): 11668 and 11173
- HepG2 viability assay, normalised to controls ([1]; log concentration (M) -6.5): 103% and 102%
- HepG2 viability assay, raw signal ([1]; log concentration (M) -6.5): 11442 and 11328
- HepG2 viability assay, normalised to controls ([1]; log concentration (M) -7): 100% and 101%
- HepG2 viability assay, raw signal ([1]; log concentration (M) -7): 11114 and 11207
- HepG2 viability assay, normalised to controls ([1]; log concentration (M) -7.5): 104% and 107%
- HepG2 viability assay, raw signal ([1]; log concentration (M) -7.5): 11575 and 11909
- HepG2 viability assay, normalised to controls ([1]; log concentration (M) -8): 105% and 102%
- HepG2 viability assay, raw signal ([1]; log concentration (M) -8): 11700 and 11315
- HepG2 viability assay, normalised to controls ([1]; log concentration (M) -8.5): 105% and 101%
- HepG2 viability assay, raw signal ([1]; log concentration (M) -8.5): 11684 and 11300
- HepG2 viability assay, normalised to controls ([1]; log concentration (M) -9): 109%
- HepG2 viability assay, raw signal ([1]; log concentration (M) -9): 12138 and 12106
- pIC50 ([1]; read-out: IC50 viability, HepG2): < 5.00
- B:P [2]: 0.97
- IC50 shift ([3]; 1x10^9 Dd2-B2 selected at 12-27 nM): 13 x
- Parasite growth, dose-response (No drug = 100) ([3]; Dd2-B2, Log concentration (M) -8.61866): 46.9671 and 65.9341 and 69.186 and 60.7743
- Parasite growth, dose-response (No drug = 100) ([3]; Dd2-B2, Log concentration (M) -8.91969): 65.3709 and 69.9634 and 65.2132 and 74.7261
- Parasite growth, dose-response (No drug = 100) ([3]; Dd2-B2, Log concentration (M) -9.22072): 72.0216 and 80.9524 and 81.3953 and 76.7714
- Parasite growth, dose-response (No drug = 100) ([3]; Dd2-B2, Log concentration (M) -9.52175): 91.6867 and 88.6447 and 91.0853 and 95.8364
- Parasite growth, dose-response (No drug = 100) ([3]; Dd2-B2, Log concentration (M) -9.82278): 93.0054 and 90.8425 and 98.7403 and 95.3251
- pIC50 ([3]; Dd2-B2, read-out: IC50): 8.75 and 8.56 and 8.45 and 8.52
- pIC50 ([3]; Dd2-B2, read-out: mean IC50): 8.52
- Parasite growth, dose-response (No drug = 100) ([3]; FL1, Log concentration (M) -7.11351): 0
- Parasite growth, dose-response (No drug = 100) ([3]; FL1, Log concentration (M) -7.41454): 70.2458 and 55.9122
- Parasite growth, dose-response (No drug = 100) ([3]; FL1, Log concentration (M) -7.71557): 80.5951 and 111.824
- Parasite growth, dose-response (No drug = 100) ([3]; FL1, Log concentration (M) -8.0166): 100 and 101.689
- Parasite growth, dose-response (No drug = 100) ([3]; FL1, Log concentration (M) -8.31763): 93.5317 and 96.6216
- Parasite growth, dose-response (No drug = 100) ([3]; FL1, Log concentration (M) -8.61866): 96.119 and 101.689
- Parasite growth, dose-response (No drug = 100) ([3]; FL1, Log concentration (M) -8.91969): 78.0078 and 118.581
- Parasite growth, dose-response (No drug = 100) ([3]; FL1, Log concentration (M) -9.22072): 94.8254 and 105.068
- Parasite growth, dose-response (No drug = 100) ([3]; FL1, Log concentration (M) -9.52175): 101.294 and 83.1081
- Parasite growth, dose-response (No drug = 100) ([3]; FL1, Log concentration (M) -9.82278): 85.7697 and 115.203
- pIC50 ([3]; FL1, read-out: IC50): 7.35 and 7.41
- Parasite growth, dose-response (No drug = 100) ([3]; FL2, Log concentration (M) -7.11351): 0
- Parasite growth, dose-response (No drug = 100) ([3]; FL2, Log concentration (M) -7.41454): 60.4288 and 62.4542
- Parasite growth, dose-response (No drug = 100) ([3]; FL2, Log concentration (M) -7.71557): 82.846 and 84.7985
- Parasite growth, dose-response (No drug = 100) ([3]; FL2, Log concentration (M) -8.0166): 96.8811 and 77.6557
- Parasite growth, dose-response (No drug = 100) ([3]; FL2, Log concentration (M) -8.31763): 88.499 and 88.6447
- Parasite growth, dose-response (No drug = 100) ([3]; FL2, Log concentration (M) -8.61866): 105.458 and 84.9817
- Parasite growth, dose-response (No drug = 100) ([3]; FL2, Log concentration (M) -8.91969): 80.5068 and 77.1062
- Parasite growth, dose-response (No drug = 100) ([3]; FL2, Log concentration (M) -9.22072): 101.365 and 80.4029
- Parasite growth, dose-response (No drug = 100) ([3]; FL2, Log concentration (M) -9.52175): 71.345 and 104.029
- Parasite growth, dose-response (No drug = 100) ([3]; FL2, Log concentration (M) -9.82278): 92.0078 and 88.4615
- pIC50 ([3]; FL2, read-out: IC50): 7.39 and 7.38
- Parasite growth, dose-response (No drug = 100) ([3]; FL3, Log concentration (M) -7.11351): 0
- Parasite growth, dose-response (No drug = 100) ([3]; FL3, Log concentration (M) -7.41454): 54.4365 and 48.2063
- Parasite growth, dose-response (No drug = 100) ([3]; FL3, Log concentration (M) -7.71557): 83.9329 and 95.9641
- Parasite growth, dose-response (No drug = 100) ([3]; FL3, Log concentration (M) -8.0166): 96.6427 and 92.1525
- Parasite growth, dose-response (No drug = 100) ([3]; FL3, Log concentration (M) -8.31763): 96.6427 and 93.0493
- Parasite growth, dose-response (No drug = 100) ([3]; FL3, Log concentration (M) -8.61866): 96.1631 and 96.6368
- Parasite growth, dose-response (No drug = 100) ([3]; FL3, Log concentration (M) -8.91969): 103.118 and 89.9103
- Parasite growth, dose-response (No drug = 100) ([3]; FL3, Log concentration (M) -9.22072): 91.1271 and 102.466
- Parasite growth, dose-response (No drug = 100) ([3]; FL3, Log concentration (M) -9.52175): 106.954 and 82.7354
- Parasite growth, dose-response (No drug = 100) ([3]; FL3, Log concentration (M) -9.82278): 109.113 and 91.4798
- pIC50 ([3]; FL3, read-out: IC50): 7.42

Structure (SMILES): CC(CNC(=O)C(O)C(C)(C)CO)NC(=O)CCc1ccccc1F (stereo in doubt) [MMV689258]
- pIC50 [4]: 7.92
